In patent publication US6479033B1, “Antitumor cystostatic and contrast agent” (priority 1994, dated 2002):

Tested on: Tumor
Assay: Tumor growth and contrasting agent in the liver after treatment (carboplatin, Spherex, gelatin foam)
Assay type: in vivo
Details: carboplatin encapsulated in SUV-PEG
Excerpt: The following Table summarizes results obtained using carboplatin as the cytostatic drug encapsulated in SUV-PEG and Spherex gelatin foam as the starch particle.

`N.N.O=C([O-])C1(C(=O)[O-])CCC1.[Pt+2]` [Carboplatin, carboplatin] was tested, and the “Tumor growth by a factor of (7 days after treatment)” value was 1.45 ± 0.96.
